Source: patent US9670209B2 (ACADIA Pharmaceuticals Inc., priority 2013, dated 2017)
pEC50: −log10 of the molar value. Marks after values point to notes of the source that are not given here.

What was measured:
[1] = system: tear secretion; experiment: Tear secretion (phenol red thread) in mice; assay type: in vivo, balb/c mice; conditions: for Effects on tear secretion compared to Comparative Compound 2: other studies using the same method (Table 2), statistically significant compared to vehicle
Description: The tear distance, in mm, is recorded. The mice were not anesthetized or otherwise sedated. […] Data are analyzed by repeated measures ANOVA with post-hoc Bonferroni comparisons to vehicle. […] Further details can be seen in FIG. 2.

[2] = target: human M1 muscarinic acetylcholine receptor (Homo sapiens (Human), UniProt P11229); experiment: R-SAT (Receptor Selection and Amplification) assay, M1; assay type: cell-based; conditions: for M1 PEC50 AVG: NIH-3T3 cells; for Emax: read-out: M1 EFF % AVG
Description: (§1) Briefly, NIH-3T3 cells were grown in 96-well tissue culture plates to 70% to 80% confluence. Cells were transfected with plasmid DNAs using Superfect Reagent (QIAGEN, Valencia, Calif.) as per the manufacturer's protocols. […] Cells were then grown in a humidified atmosphere with 5% ambient CO2 for 4 to 6 days. Media were then removed from the plates, and beta-galactosidase activity was measured by the addition of o-nitrophenyl-D-galactopyranoside (in phosphate-buffered saline with 5% NP-40 detergent). […] All data represent the mean of three wells and were analyzed using the computer program Excel Fit, and EC50 determinations were made using least-squares fit analysis with GraphPad Software Inc. (San Diego, Calif.) software.

[3] = target: human M2 muscarinic acetylcholine receptor (Homo sapiens (Human), UniProt P08172); experiment: R-SAT (Receptor Selection and Amplification) assay, M2; assay type: cell-based; conditions: for M2 PEC50 AVG: NIH-3T3 cells; for Emax: read-out: M2 EFF % AVG
Description: as §1

[4] = target: human M3 muscarinic acetylcholine receptor (Homo sapiens (Human), UniProt P20309); experiment: R-SAT (Receptor Selection and Amplification) assay, M3; assay type: cell-based; conditions: for M3 PEC50 AVG: NIH-3T3 cells; for Emax: read-out: M3 EFF % AVG
Description: as §1

[5] = target: M1 muscarinic receptor (Homo sapiens (Human), UniProt P11229); experiment: M1 GTPγS binding assay; assay type: biochemical; conditions: for Emax: read-out: M1 GTPγS EFF % AVG;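 on Emax: efficacy relative to carbachol as 100%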
[6] = Ocular pharmacokinetic evaluation in rabbits; assay type: in vivo, New Zealand White rabbits
Description: The experimental animals were normotensive male New Zealand White rabbits. A single drop (35 μl) of a compound, (302s), at a concentration of 0.126% (corrected for oxalate salt weight) was administered to each eye by pipette. At 0.25, 0.5, 1, 2, 4, 8, and 24 hours, plasma, aqueous humor, vitreous humor, cornea, iris-ciliary body, retina, and choroid were collected (2 rabbits/timepoint, or 4 eyes/timepoint). Approximately 0.5 ml of blood was collected and placed in EDTA tubes. Blood samples were kept on ice during the duration of sample collection, and centrifuged to harvest plasma. Animals were euthanized and ocular tissues were collected and placed in vials and kept on dry ice for the duration of the collections. All ocular tissue and plasma samples were stored at or below −60° C. until bioanalysis. […] The plasma concentration at most timepoints was >100-fold lower than the compound concentration in target ocular tissues (iris/ciliary body, cornea, retina). The concentration of compound 302s in the target ocular tissues remained at active levels up to at least 24 h. Abbreviations used in FIG. 3 have the following meanings AH (Aqueous Humor), VH (Vitreous Humor) ICB (Iris Ciliary Body), CenP Retina (Center Punch Retina), Per Retina (Peripheral Retina) CenP Choroid (Center Punch Choroid), and Per Choroid (Peripheral Choroid)

[7] = pilocarpine 24-hour study, 3 and 6 hours post-dosing
[8] = third study (pilocarpine 24-hour study), 3 hr post-dosing, 0.1% 5 μl drop, Pilocarpine 0.2% 20 μl drop
[9] = third study (pilocarpine 24-hour study), 6 hr post-dosing, 0.1% 5 μl drop, Pilocarpine 0.2% 20 μl drop
[10] = third study (pilocarpine 24-hour study), 24 hr post-dosing, 0.1% 5 μl drop, Pilocarpine 0.2% 20 μl drop
[11] = percent efficacy vs carbachol = 100 percent
[12] = first study of Table 2, 1 hr post-dosing, 5 μl drop of 0.1% to each eye
[13] = second study of Table 2, 1 hr post-dosing, 5 μl drop of 0.1% to each eye
[14] = second study of Table 2, 3 hr post-dosing, 5 μl drop of 0.1% to each eye
[15] = R-SAT, percent efficacy vs carbachol = 100 percent

human M3 muscarinic acetylcholine receptor, sequence (P20309 whole entry): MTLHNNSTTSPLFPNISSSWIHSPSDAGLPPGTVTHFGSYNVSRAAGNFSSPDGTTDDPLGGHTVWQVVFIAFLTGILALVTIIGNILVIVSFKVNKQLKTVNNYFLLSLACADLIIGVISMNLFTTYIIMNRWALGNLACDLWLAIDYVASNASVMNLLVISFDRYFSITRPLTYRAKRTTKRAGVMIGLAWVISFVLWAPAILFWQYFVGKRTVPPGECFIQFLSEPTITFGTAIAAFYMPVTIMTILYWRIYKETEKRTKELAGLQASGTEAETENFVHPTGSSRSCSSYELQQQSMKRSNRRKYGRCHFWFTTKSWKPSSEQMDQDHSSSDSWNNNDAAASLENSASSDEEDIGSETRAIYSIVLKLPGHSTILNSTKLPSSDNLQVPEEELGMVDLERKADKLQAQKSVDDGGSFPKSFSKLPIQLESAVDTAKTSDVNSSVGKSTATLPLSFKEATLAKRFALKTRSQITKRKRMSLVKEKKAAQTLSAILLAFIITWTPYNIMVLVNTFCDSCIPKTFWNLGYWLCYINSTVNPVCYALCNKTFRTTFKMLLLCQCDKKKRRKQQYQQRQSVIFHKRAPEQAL
M1 muscarinic receptor, sequence (P11229 whole entry): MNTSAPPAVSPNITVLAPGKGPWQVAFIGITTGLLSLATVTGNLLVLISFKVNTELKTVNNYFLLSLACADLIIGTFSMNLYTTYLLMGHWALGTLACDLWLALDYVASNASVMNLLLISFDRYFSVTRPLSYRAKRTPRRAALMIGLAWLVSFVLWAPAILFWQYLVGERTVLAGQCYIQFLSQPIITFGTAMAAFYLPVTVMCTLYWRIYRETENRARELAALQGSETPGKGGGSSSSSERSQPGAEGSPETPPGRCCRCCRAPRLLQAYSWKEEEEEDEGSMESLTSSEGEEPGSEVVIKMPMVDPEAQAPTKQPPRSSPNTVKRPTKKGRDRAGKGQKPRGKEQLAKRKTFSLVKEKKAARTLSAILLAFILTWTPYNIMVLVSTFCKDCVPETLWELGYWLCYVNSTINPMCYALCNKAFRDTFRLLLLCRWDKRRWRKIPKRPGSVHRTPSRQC
human M1 muscarinic acetylcholine receptor, sequence (P11229 whole entry): as above
human M2 muscarinic acetylcholine receptor, sequence (P08172 whole entry): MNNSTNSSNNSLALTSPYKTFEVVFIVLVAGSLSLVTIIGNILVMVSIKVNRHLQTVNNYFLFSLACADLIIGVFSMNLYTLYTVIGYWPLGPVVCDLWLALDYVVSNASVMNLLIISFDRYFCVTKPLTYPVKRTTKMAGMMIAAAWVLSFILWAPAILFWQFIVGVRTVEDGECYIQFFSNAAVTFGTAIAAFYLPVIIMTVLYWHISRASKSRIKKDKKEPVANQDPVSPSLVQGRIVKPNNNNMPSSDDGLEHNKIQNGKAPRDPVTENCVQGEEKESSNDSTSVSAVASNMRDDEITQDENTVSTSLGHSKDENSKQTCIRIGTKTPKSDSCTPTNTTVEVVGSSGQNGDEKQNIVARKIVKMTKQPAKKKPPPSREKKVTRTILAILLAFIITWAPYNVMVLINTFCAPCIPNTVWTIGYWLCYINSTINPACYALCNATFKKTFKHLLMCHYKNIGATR

SMILES	Tear secretion compared to vehicle [1, 7]	Tear secretion [1, 8]	Tear secretion [1, 9]	Tear secretion [1, 10]	M1 PEC50 AVG [2]	Emax [2, 11] [%]	M2 PEC50 AVG ([3]; R-SAT)	Emax [3] [%]	M3 PEC50 AVG ([4]; R-SAT)	Emax [4] [%]	M1 GTPγS PEC50 AVG ([5]; GTPγS binding)	Emax [5] [%]	Tear secretion [1, 12] [% *]	Tear secretion [1, 13]	Tear secretion [1, 14]	pEC50 [5]	Effects on tear secretion compared to Comparative Compound 2 [1]	further results
CC[C@@H]1C(=O)OC[C@@H]1Cc1cncn1C [Pilocarpine, reference compound]	statistically significant improved tear secretion	142% *	136% *	113%	–	–	–	–	–	–	–	–	–	–	–	–	–	–
C[C@H](CN1[C@@H]2CC[C@H]1C[C@@H](OCC1CC1)C2)Cn1ncc2ccccc21 [Compound 302S, 1-((R)-3-((1R,3R,5S)-3-(cyclopropylmethoxy)-8-azabicyclo[3.2.1]octan-8-yl)-2-methylpropyl)-1H-indazole]	statistically significant improved tear secretion	152% *	151% *	120% †	8.9	111	7.6	153	6.8	12	8.5	98	156	157% *	155% *	–	–	Tear secretion compared to vehicle ([1]; pilocarpine 24-hour study, 24 hours post-dosing): trend toward significance; Enhancement of tear secretion compared to pilocarpine ([1]; pilocarpine 24-hour study, all time points): exceeded the effect of pilocarpine at all time points; Kp ([6]; male, New Zealand White, rabbit, retina (against plasma), topical, 35 μl of 0.126% per eye, most timepoints, iris/ciliary body, cornea, retina, read-out: Plasma concentration lower than concentration in target ocular tissues): > 100; Tmax ([6]; male, New Zealand White, rabbit, topical, 35 μl of 0.126% per eye, all tissues, single 35 μl drop of 0.126% to each eye): 15 min; Cmax ([6]; male, New Zealand White, rabbit, topical, 35 μl of 0.126% per eye, plasma, single 35 μl drop of 0.126% to each eye, read-out: Maximal plasma concentration (Cmax)): 6.4 ng/g; Time the concentration in the target ocular tissues remained at active levels ([6]; target ocular tissues, single topical drop): at least 24 h
CC(C)(C)OC(=O)N1C2CC[C@H]1C[C@@H](O)C2 [Comparative compound 2, reference compound]	–	134%	110%	98%	9.0	–	7.1	–	7.1	–	7.9	–	149	113%	123%	–	–	M1 EFF % AVG [2, 11]: 126%; M2 EFF % AVG [3, 15]: 52%; M3 EFF % AVG [4, 15]: 30%; M1 GTPγS EFF % AVG ([5]; GTPγS binding, percent efficacy vs carbachol = 100 percent): 32%; Effect on tear secretion compared to vehicle ([1]; pilocarpine 24-hour study): not significantly different from vehicle
COCC[C@H]1C[C@H]2CC[C@@H](C1)N2C[C@@H](C)Cn1ncc2ccccc21 [Compound 303S, 1-((R)-3-((1R,3R,5S)-3-(2-Methoxyethyl)-8-azabicyclo[3.2.1]octan-8-yl)-2-methylpropyl)-1H-indazole]	–	–	–	–	8.4	121	7.1	102	–	8	–	67	–	131%	134% *	7.20	greater than that of Comparative Compound 2	–
Cc1ccc2c(cnn2C[C@H](C)CN2[C@@H]3CC[C@H]2C[C@@H](OCC2CC2)C3)c1 [Compound 321, 1-((R)-3-(3-(cyclopropylmethoxy)-8-aza-bicyclo[3.2.1]octan-8-yl)-2-methylpropyl)-5-methyl-1H-indazole]	–	–	–	–	7.9	75	8.1	19	–	3	–	56	–	–	–	7.20	–	–
C=CCO[C@H]1C[C@H]2CC[C@@H](C1)N2C[C@@H](C)Cn1ncc2ccccc21 [Compound 305, 1-((R)-3-((1R,3R,5S)-3-(Allyloxy)-8-azabicyclo[3.2.1]octan-8-yl)-2-methylpropyl)-1H-indazole]	–	–	–	–	8.1	115	6.9	107	–	4	–	70	163	–	–	7.10	greater than that of Comparative Compound 2	–
